# Biological target: Angiotensin-converting enzyme (Rattus norvegicus) (UniProt P47820)
# Test: In vitro inhibitory activity against angiotensin converting enzyme (ACE) in rat was determined
# Angiotensin-converting enzyme (Rattus norvegicus), sequence (P47820 whole entry, looked up): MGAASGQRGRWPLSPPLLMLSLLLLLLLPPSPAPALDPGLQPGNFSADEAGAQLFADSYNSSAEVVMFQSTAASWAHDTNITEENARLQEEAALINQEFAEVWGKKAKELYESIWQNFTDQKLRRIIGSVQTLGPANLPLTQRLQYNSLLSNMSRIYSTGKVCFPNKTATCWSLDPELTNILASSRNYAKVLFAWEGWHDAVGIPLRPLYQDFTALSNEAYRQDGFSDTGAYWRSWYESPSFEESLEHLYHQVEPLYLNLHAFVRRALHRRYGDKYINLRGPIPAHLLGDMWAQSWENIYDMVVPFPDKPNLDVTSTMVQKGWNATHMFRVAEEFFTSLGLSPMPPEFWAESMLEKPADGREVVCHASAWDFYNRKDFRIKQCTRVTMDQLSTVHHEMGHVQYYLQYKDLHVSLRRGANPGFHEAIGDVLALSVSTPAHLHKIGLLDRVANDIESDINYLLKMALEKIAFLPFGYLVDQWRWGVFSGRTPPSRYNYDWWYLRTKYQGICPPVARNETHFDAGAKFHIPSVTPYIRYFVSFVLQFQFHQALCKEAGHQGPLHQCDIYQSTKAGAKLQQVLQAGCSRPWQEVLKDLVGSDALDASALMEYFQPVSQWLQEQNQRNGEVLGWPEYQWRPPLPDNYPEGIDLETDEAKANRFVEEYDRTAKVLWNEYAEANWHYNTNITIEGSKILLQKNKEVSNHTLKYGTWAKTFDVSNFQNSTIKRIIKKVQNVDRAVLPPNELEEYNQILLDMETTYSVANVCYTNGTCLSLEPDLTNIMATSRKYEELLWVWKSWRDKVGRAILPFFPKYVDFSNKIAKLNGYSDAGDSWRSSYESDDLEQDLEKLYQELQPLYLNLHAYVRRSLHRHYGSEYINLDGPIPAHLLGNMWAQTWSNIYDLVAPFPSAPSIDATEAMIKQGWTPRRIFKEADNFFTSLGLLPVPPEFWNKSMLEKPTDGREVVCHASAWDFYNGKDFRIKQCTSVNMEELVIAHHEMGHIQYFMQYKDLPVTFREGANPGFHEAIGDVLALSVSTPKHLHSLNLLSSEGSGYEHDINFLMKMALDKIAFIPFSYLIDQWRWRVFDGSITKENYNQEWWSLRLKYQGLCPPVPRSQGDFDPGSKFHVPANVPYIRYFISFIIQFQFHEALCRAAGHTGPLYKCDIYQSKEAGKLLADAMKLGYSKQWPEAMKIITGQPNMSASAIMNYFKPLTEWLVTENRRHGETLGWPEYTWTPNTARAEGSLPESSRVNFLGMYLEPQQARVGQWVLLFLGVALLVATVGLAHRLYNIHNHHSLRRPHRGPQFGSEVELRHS
row,SMILES,IC50 [nM]
1,O=C(N[C@H]1CCC(=O)N2CC[C@@H](C(=O)O)N2C1=O)[C@@H](S)Cc1ccccc1,20
2,O=C(N[C@H]1CCC(=O)N2CCC[C@@H](C(=O)O)N2C1=O)[C@@H](S)Cc1ccccc1,7
3,CN1C(=O)CC[C@H](NC(=O)[C@@H](S)Cc2ccccc2)C(=O)N1CC(=O)O,16
4,CN1CCC[C@H](NC(=O)[C@@H](S)Cc2ccccc2)C(=O)N1CC(=O)O,16
5,CCCN1CCC[C@H](NC(=O)[C@@H](S)Cc2ccccc2)C(=O)N1CC(=O)O,6
6,CCCN1C(=O)CC[C@H](NC(=O)[C@@H](S)Cc2ccccc2)C(=O)N1CC(=O)O,10
7,O=C(N[C@H]1CCCN2CC[C@@H](C(=O)O)N2C1=O)[C@@H](S)Cc1ccccc1,12
8,O=C(N[C@H]1CCCN2CCC[C@@H](C(=O)O)N2C1=O)[C@@H](S)Cc1ccccc1,8
9,O=C(O)CN1NCCC[C@H](NC(=O)[C@@H](S)Cc2ccccc2)C1=O,60

# From BindingDB's records for doi:10.1016/S0960-894X(01)80562-X (1994)
